Source: patent US5373000A, “7Beta-(thiadiazolyl)-2-iminoacetamido-3cephem compounds” (Eisai Co., Ltd., priority 1985, dated 1994)
≈ marks a conversion by molar mass, not a printed value. Structures can show the parent of a compound that is named as a salt. Where two headings read alike, the source gives them in different places.

Legend:
Assay in all cases: Antibacterial activities, MIC
Type in all cases: cell-based
[1] = test system: Staph. aureus 209-P
[2] = test system: Escher. coli NIHJ
[3] = test system: Kleb Pneumoniae EK-6
[4] = test system: Ser. marcescens ES-75
[5] = test system: Morg. morganii EP-14
[6] = test system: Pseud. aeruginosa EP-01
[7] = Staphylococcus aureus, read-out: MIC
[8] = Escherichia coli, read-out: MIC
[9] = Serratia marcescens, ES75, read-out: MIC
[10] = Morganella morganii, EP14, Morg. morganii EP-14, read-out: MIC
[11] = Pseudomonas aeruginosa, EP01, Pseud. aeruginosa EP-01, read-out: MIC

Compound | MIC [1, 7] [µg/mL] | MIC [2, 8] [µg/mL] | MIC ([3]; read-out: MIC) [µg/mL] | MIC [4, 9] [µg/mL] | MIC [5, 10] [µg/mL] | MIC [6, 11] [µg/mL] | MIC [1] [µg/mL] | MIC [2] [µg/mL] | MIC [3] [µg/mL] | MIC [4] [µg/mL] | MIC ([5]; Morg. morganii EP-14) [µg/mL] | MIC ([6]; Pseud. aeruginosa EP-01) [µg/mL]
CO/N=C(\C(=O)N[C@@H]1C(=O)N2C(C(=O)[O-])=C(/C=C/C[N+]3(C)CCCN3C)CS[C@H]12)c1nsc(N)n1 (single isomer, unassigned) [Example 30-A, 7β-[2-(5-Amino-1,2,4-thiadiazol-3-yl)-(Z)-2-methoxyiminoacetamido]-3-[(E)-(1,2-dimethyl-1-pirazolydinio)-1-propen-1-yl]-3-cephem-4-carboxylate] | 0.1 (≈ 0.191 µM) | ≤ 0.025 | ≤ 0.025 | 0.05 (≈ 0.0957 µM) | ≤ 0.025 | 0.4 (≈ 0.765 µM) |  |  |  |  |  | 
CO/N=C(\C(=O)N[C@@H]1C(=O)N2C(C(=O)[O-])=C(/C=C/C[N+]3(C)CCCN3C)CS[C@H]12)c1nsc(N)n1 (single isomer, unassigned) [Example 30-B, 7β-[2-(5-Amino-1,2,4-thiadiazol-3-yl)-(Z)-2-methoxyiminoacetamido]-3-[(E)-(1,2-dimethyl-1-pirazolydinio)-1-propen-1-yl]-3-cephem-4-carboxylate] |  |  |  |  |  |  | 0.1 (≈ 0.191 µM) | ≤ 0.025 | ≤ 0.025 | 0.05 (≈ 0.0957 µM) | 0.05 (≈ 0.0957 µM) | 0.8 (≈ 1.53 µM)
CO/N=C(\C(=O)N[C@@H]1C(=O)N2C(C(=O)[O-])=C(/C=C/C[N+]3(C)CC=CC3)CS[C@H]12)c1nsc(N)n1 [Example 2, 7β-[2-(5-Amino-1,2,4-thiadiazol-3-yl)-(Z)-2-methoxyiminoacetamido]-3-[(E)-3-(1-methyl-3-pyrrolinio)-1-propene-1-yl)-3-cephem-4-carboxylate] | 0.2 (≈ 0.396 µM) | 0.05 (≈ 0.0989 µM) | ≤ 0.025 | 0.1 (≈ 0.198 µM) | 0.05 (≈ 0.0989 µM) | 1.56 (≈ 3.09 µM) |  |  |  |  |  | 
CO/N=C(\C(=O)N[C@@H]1C(=O)N2C(C(=O)[O-])=C(/C=C/C[N+]3(C)CCC[C@H]3CO)CS[C@H]12)c1nsc(N)n1 (stereo partly drawn) [Example 3, 7β-[2-(5-Amino-1,2,4-thiadiazol-3-yl)-(Z)-2-methoxyiminoacetamido]-3-[(E)-3-((2S)-2-hydroxymethyl-1-methylpyrrolidinio)-1-propen-1-yl]-3-cephem-4-carboxylate] | 0.2 (≈ 0.372 µM) | 0.05 (≈ 0.093 µM) | ≤ 0.025 | 0.1 (≈ 0.186 µM) | 0.05 (≈ 0.093 µM) | 1.56 (≈ 2.9 µM) |  |  |  |  |  | 
CO/N=C(\C(=O)N[C@@H]1C(=O)N2C(C(=O)[O-])=C(/C=C/C[N+]34CCC(C(N)=O)(CC3)CC4)CS[C@H]12)c1nsc(N)n1 [Example 4, 7β-[2-(5-Amino-1,2,4-thiadiazol-3-yl)-(Z)-2-methoxyiminoacetamido]-3-[(E)-3-(4-carbamoylquinuclidinio)-1-propen-1-yl]-3-cephem-4-carboxylate] | 0.4 (≈ 0.694 µM) | 0.05 (≈ 0.0867 µM) | ≤ 0.025 | 0.1 (≈ 0.173 µM) | 0.05 (≈ 0.0867 µM) | 1.56 (≈ 2.71 µM) |  |  |  |  |  | 
CO/N=C(\C(=O)N[C@@H]1C(=O)N2C(C(=O)[O-])=C(/C=C/C[N+]3(C)CCNCC3)CS[C@H]12)c1nsc(N)n1 [Example 5, 7β-[(2-(5-Amino-1,2,4-thiadiazol-3-yl)-(Z)-2-methoxyiminoacetamido]-3-[(E)-3-(1-methyl-1-piperadinio)-1-propen-1-yl]-3-cephem-4-carboxylate trifluoroacetate] | 0.2 | 0.05 | ≤ 0.025 | 0.1 | 0.1 | 0.8 |  |  |  |  |  | 
CC[N+](CC)(C/C=C/C1=C(C(=O)[O-])N2C(=O)[C@@H](NC(=O)/C(=N\OC)c3nsc(N)n3)[C@H]2SC1)CC(N)=O [Example 11, 7β-[2-(5-Amino-1,2,4-thiadiazol-3-yl)-(Z)-2-methoxyiminoacetamido]-3-[(E)-3-(carbamoylmethyldiethylammonio)-1-propen-1-yl]-3-cephem-4-carboxylate] | 0.2 (≈ 0.362 µM) | 0.05 (≈ 0.0905 µM) | ≤ 0.025 | 0.1 (≈ 0.181 µM) | 0.05 (≈ 0.0905 µM) | 1.56 (≈ 2.82 µM) |  |  |  |  |  | 
CO/N=C(\C(=O)N[C@@H]1C(=O)N2C(C(=O)[O-])=C(/C=C/C[N+](C)(C)CCN(C)C)CS[C@H]12)c1nsc(N)n1 [Example 12, 7β-[2-(5-Amino-1,2,4-thiadiazol-3-yl)-(Z)-2-methoxyiminoacetamido]-3-[(E)-3-(2-dimethylaminoethyldimethylammonio)-1-propen-1-yl]-3-cephem-4-carboxylate] | 0.4 (≈ 0.743 µM) | 0.05 (≈ 0.0928 µM) | 0.05 (≈ 0.0928 µM) | 0.1 (≈ 0.186 µM) | 0.1 (≈ 0.186 µM) | 1.56 (≈ 2.9 µM) |  |  |  |  |  | 
CO/N=C(\C(=O)N[C@@H]1C(=O)N2C(C(=O)[O-])=C(/C=C/C[n+]3ccc4n3CCOC4)CS[C@H]12)c1nsc(N)n1 [Example 14, 7β-[2-(5-Amino-1,2,4-thiadiazol-3-yl)-(Z)-2-methoxyiminoacetamido]-3-[(E)-(1-morpholino[4,3-b]pyrazolio)-1-propen-1-yl]-3-cephem-4-carboxylate] | 0.2 (≈ 0.366 µM) | ≤ 0.025 | ≤ 0.025 | 0.05 (≈ 0.0915 µM) | 0.05 (≈ 0.0915 µM) | 1.56 (≈ 2.85 µM) |  |  |  |  |  | 
CCO/N=C(\C(=O)N[C@@H]1C(=O)N2C(C(=O)[O-])=C(/C=C/C[N+](C)(C)CC(N)=O)CS[C@H]12)c1nsc(N)n1 [Example 15, 7β-[2-(5-Amino-1,2,4-thiadiazol-3-yl)-(Z)-2-ethoxyiminoacetamido]-3-[(E)-3-(carbamoylmethyldimethylammonio)-1-propen-1-yl]-3-cephem-4-carboxylate] | 0.2 (≈ 0.371 µM) | 0.1 (≈ 0.186 µM) | 0.05 (≈ 0.0928 µM) | 0.2 (≈ 0.371 µM) | 0.05 (≈ 0.0928 µM) | 1.56 (≈ 2.9 µM) |  |  |  |  |  | 
CO/N=C(\C(=O)N[C@@H]1C(=O)N2C(C(=O)[O-])=C(/C=C/C[N+](C)(C)CC(C)=O)CS[C@H]12)c1nsc(N)n1 [Example 17, 7β-[2-(5-Amino-1,2,4-thiadiazol-3-yl)-(Z)-2-methoxyiminoacetamido]-3-[(E)-3-(2-oxopropyldimethylammonio)-1-propen-1-yl]-3-cephem-4-carboxylate] | 0.4 (≈ 0.764 µM) | 0.05 (≈ 0.0955 µM) | 0.05 (≈ 0.0955 µM) | 0.1 (≈ 0.191 µM) | 0.1 (≈ 0.191 µM) | 1.56 (≈ 2.98 µM) |  |  |  |  |  | 
CO/N=C(\C(=O)N[C@@H]1C(=O)N2C(C(=O)[O-])=C(/C=C/C[N+](C)(C)CCO)CS[C@H]12)c1nsc(N)n1 [Example 18-A, 7β-[2-(5-Amino-1,2,4-thiadiazol-3-yl)-(Z)-2-methoxyiminoacetamido]-3-[(E)-3-(2-hydroxyethyldimethylammonio)-1-propen-1-yl]-3-cephem-4-carboxylate] | 0.2 (≈ 0.391 µM) | ≤ 0.025 | ≤ 0.025 | 0.1 (≈ 0.195 µM) | 0.05 (≈ 0.0977 µM) | 0.8 (≈ 1.56 µM) |  |  |  |  |  | 
CO/N=C(\C(=O)N[C@@H]1C(=O)N2C(C(=O)[O-])=C(/C=C/C[N+](C)(C)Cc3ncon3)CS[C@H]12)c1nsc(N)n1 [Example 21] | 0.2 (≈ 0.364 µM) | ≤ 0.025 | ≤ 0.025 | 0.05 (≈ 0.091 µM) | ≤ 0.025 | 1.56 (≈ 2.84 µM) |  |  |  |  |  | 
CO/N=C(\C(=O)N[C@@H]1C(=O)N2C(C(=O)[O-])=C(/C=C/C[N+](C)(C)Cc3cnc[nH]3)CS[C@H]12)c1nsc(N)n1 [Example 22] | 0.2 (≈ 0.365 µM) | 0.05 (≈ 0.0913 µM) | 0.05 (≈ 0.0913 µM) | 0.1 (≈ 0.183 µM) | 0.05 (≈ 0.0913 µM) | 1.56 (≈ 2.85 µM) |  |  |  |  |  | 
CO/N=C(\C(=O)N[C@@H]1C(=O)N2C(C(=O)[O-])=C(/C=C/C[N+](C)(C)Cc3cscn3)CS[C@H]12)c1nsc(N)n1 [Example 23, 7β-[2-(5-Amino-1,2,4-thiadiazol-3-yl)-(Z)-2-methoxyiminoacetamido]-3-[(E)-3[(thiazol-4-yl)methyldimethylammonio]-1-propen-1-yl]-3-cephem-4-carboxylate] | 0.2 (≈ 0.354 µM) | ≤ 0.025 | ≤ 0.025 | 0.05 (≈ 0.0885 µM) | ≤ 0.025 | 3.13 (≈ 5.54 µM) |  |  |  |  |  | 
CO/N=C(\C(=O)N[C@@H]1C(=O)N2C(C(=O)[O-])=C(/C=C/C[N+](C)(C)Cc3cc[nH]n3)CS[C@H]12)c1nsc(N)n1 [Example 24, 7β-[2-(5-Amino-1,2,4-thiadiazol-3-yl)-(Z)-2-methoxyiminoacetamido]-3-[(E)-3-[(pyrazol-3-yl)methyldimethylammonio]-1-propen-1-yl]-3-cephem-4-carboxylate] | 0.2 (≈ 0.365 µM) | ≤ 0.025 | ≤ 0.025 | 0.1 (≈ 0.183 µM) | 0.05 (≈ 0.0913 µM) | 3.13 (≈ 5.72 µM) |  |  |  |  |  | 
CO/N=C(\C(=O)N[C@@H]1C(=O)N2C(C(=O)[O-])=C(/C=C/C[N+](C)(C)Cc3csc(N)n3)CS[C@H]12)c1nsc(N)n1 [Example 25] | 0.2 (≈ 0.345 µM) | ≤ 0.025 | 0.03 (≈ 0.0518 µM) | 0.03 (≈ 0.0518 µM) | 0.05 (≈ 0.0863 µM) | 3.13 (≈ 5.4 µM) |  |  |  |  |  | 
CO/N=C(\C(=O)N[C@@H]1C(=O)N2C(C(=O)[O-])=C(/C=C/C[N+](C)(C)Cc3ccoc3)CS[C@H]12)c1nsc(N)n1 [Example 26, 7β-[2-(5-Amino-1,2,4-thiadiazol-3-yl)-(Z)-2-methoxyiminoacetamido]-3-[(E)-3-[(furan-3-yl)-methyldimethylammonio]-1-propen-1-yl]-3-cephem-4-carboxylate] | 0.2 (≈ 0.365 µM) | ≤ 0.025 | ≤ 0.025 | 0.05 (≈ 0.0913 µM) | ≤ 0.025 | 3.13 (≈ 5.72 µM) |  |  |  |  |  | 
CO/N=C(\C(=O)N[C@@H]1C(=O)N2C(C(=O)[O-])=C(/C=C/C[N+]3(C)CCN(S(N)(=O)=O)CC3)CS[C@H]12)c1nsc(N)n1 [Example 27, 7β-[2-(5-Amino-1,2,4-thiadiazol-3-yl)-(Z)-2-methoxyiminoacetamido]-3-[(E)-3-(1-methyl-4-sulfamoyl-1-piperazinio)-1-propen-1-yl]-3-cephem-4-carboxylate] | 0.2 (≈ 0.332 µM) | ≤ 0.025 | ≤ 0.025 | 0.1 (≈ 0.166 µM) | 0.05 (≈ 0.0831 µM) | 0.8 (≈ 1.33 µM) |  |  |  |  |  | 
CO/N=C(\C(=O)N[C@@H]1C(=O)N2C(C(=O)[O-])=C(/C=C/C[N+]3(CC(N)=O)CC[C@@H](O)C3)CS[C@H]12)c1nsc(N)n1 (some centres unmarked) [Example 45-2] |  |  |  |  |  |  | 0.4 (≈ 0.706 µM) | 0.05 (≈ 0.0882 µM) | ≤ 0.025 |  | ≤ 0.025 | 0.8 (≈ 1.41 µM)
